From ChEMBL document CHEMBL1201862, “PubChem BioAssay data set” (2004)
Values joined by “and” are separate entries in the source; they are usually repeats but may differ in a detail not shown here. Equal entries are not always repeated. Blank lines part the entries; values can stand above or below the compound they belong to. Active and inactive are the calls of the source.

How the values were obtained:
[1] = molecular target: Serine/threonine-protein phosphatase PP1-alpha catalytic subunit (Homo sapiens, UniProt P62136); test: inhibition of protein phosphatase 1 activity – biochemical, fluorescence, dose response (AID 2394)
Sequence of Serine/threonine-protein phosphatase PP1-alpha catalytic subunit (P62136 whole entry): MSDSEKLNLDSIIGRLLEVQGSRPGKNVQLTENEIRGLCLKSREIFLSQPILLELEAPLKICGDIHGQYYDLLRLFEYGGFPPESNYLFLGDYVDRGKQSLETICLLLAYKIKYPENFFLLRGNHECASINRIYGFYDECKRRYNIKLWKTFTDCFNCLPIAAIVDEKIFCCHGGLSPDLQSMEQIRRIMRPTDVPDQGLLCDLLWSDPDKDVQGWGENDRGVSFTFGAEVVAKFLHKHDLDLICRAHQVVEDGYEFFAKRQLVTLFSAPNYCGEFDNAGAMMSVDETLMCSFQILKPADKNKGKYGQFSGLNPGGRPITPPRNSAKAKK

[2] = molecular target: Serine/threonine-protein phosphatase (Homo sapiens, UniProt Q9BPW0); test: inhibition of protein phosphatase 5 activity – biochemical, fluorescence, dose response (AID 2395)
Sequence of Serine/threonine-protein phosphatase (Q9BPW0 whole entry): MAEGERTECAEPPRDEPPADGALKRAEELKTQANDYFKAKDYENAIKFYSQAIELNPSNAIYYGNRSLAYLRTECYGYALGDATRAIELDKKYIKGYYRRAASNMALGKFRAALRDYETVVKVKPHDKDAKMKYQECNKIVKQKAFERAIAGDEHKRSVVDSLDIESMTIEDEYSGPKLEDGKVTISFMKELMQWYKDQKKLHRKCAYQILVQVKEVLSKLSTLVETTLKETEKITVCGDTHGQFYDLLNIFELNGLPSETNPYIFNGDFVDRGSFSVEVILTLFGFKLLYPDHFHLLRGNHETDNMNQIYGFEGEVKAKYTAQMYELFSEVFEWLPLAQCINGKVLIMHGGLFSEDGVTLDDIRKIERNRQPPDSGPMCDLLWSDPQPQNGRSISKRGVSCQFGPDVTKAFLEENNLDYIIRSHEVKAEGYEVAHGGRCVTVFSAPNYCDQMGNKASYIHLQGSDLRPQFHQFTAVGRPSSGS

[3] = IC50 of Artemis nuclease activity blockers – biochemical, fluorescence intensity, dose response (AID 720701); type: functional;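 further: Artemis endonuclease enzyme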
[4] = molecular target: T1, NADPH oxidase 1 (Homo sapiens, UniProt Q9Y5S8); type: functional, cell-based
T1 sequence (Q9Y5S8 whole entry): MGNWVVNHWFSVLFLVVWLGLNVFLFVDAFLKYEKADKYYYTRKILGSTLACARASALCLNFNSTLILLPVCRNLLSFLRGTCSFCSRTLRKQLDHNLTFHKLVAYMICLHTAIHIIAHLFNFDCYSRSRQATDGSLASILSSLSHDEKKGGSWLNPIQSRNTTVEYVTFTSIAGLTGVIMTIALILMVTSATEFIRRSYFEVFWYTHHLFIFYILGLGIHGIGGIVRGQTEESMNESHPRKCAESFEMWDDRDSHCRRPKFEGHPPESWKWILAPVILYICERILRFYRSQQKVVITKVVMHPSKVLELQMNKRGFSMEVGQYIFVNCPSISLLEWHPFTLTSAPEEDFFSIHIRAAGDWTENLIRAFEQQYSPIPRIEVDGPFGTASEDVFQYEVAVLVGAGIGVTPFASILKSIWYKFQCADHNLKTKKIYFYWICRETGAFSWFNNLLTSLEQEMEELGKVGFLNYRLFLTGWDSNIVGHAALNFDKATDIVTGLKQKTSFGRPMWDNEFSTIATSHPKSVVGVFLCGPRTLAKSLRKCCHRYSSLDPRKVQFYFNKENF

[5] = molecular target: T2, Rac GTPase-activating protein 1 (Homo sapiens, UniProt Q9H0H5); test: blockers of MgcRacGAP-driven Rac1 GTP hydrolysis – biochemical, ADP Hunter fluorescence, primary and confirmatory, confirmation (AID 624330); type: functional
T2 sequence (Q9H0H5 whole entry): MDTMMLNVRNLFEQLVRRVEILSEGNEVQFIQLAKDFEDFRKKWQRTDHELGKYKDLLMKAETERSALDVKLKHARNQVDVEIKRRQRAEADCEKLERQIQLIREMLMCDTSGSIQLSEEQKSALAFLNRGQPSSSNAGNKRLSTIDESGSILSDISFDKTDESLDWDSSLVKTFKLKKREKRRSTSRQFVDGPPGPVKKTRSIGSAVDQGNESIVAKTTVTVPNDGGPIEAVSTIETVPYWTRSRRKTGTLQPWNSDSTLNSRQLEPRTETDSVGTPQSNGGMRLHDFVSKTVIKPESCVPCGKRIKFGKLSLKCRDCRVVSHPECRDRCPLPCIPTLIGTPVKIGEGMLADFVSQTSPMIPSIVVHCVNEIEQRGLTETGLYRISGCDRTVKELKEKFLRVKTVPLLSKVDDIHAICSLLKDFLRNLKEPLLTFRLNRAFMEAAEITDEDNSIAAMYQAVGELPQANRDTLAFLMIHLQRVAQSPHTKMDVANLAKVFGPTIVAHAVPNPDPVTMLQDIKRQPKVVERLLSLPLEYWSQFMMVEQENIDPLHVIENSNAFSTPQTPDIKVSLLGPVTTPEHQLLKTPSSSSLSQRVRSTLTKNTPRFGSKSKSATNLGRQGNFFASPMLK

[6] = molecular target: T3, Neuropeptide Y receptor type 2 (Homo sapiens, UniProt P49146); test: IC50 for human NPY-Y2 blockade – cell-based, counter-screen for NPY-Y1 antagonist project, dose response (AID 1278); type: functional
T3 sequence (P49146 whole entry): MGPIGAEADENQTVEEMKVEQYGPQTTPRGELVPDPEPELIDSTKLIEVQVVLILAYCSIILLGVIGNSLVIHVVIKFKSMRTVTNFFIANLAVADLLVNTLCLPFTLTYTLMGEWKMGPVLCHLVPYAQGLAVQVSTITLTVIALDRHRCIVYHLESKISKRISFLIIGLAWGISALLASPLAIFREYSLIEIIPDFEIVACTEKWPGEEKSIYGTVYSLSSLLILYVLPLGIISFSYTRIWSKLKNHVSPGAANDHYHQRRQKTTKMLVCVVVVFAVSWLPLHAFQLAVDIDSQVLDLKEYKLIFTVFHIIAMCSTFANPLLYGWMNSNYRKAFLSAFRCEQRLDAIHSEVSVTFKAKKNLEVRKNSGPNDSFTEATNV

[7] = molecular target: T4, Sphingosine 1-phosphate receptor 2 (Homo sapiens, UniProt O95136); test: Dose Response Cell-Based Assay for Agonists of the Sphingosine 1-Phosphate Receptor 2 (S1P2): Purchased Analogues. [Related pubchem assays: 1192, 373, 439 ]; type: functional
T4 sequence (O95136 whole entry): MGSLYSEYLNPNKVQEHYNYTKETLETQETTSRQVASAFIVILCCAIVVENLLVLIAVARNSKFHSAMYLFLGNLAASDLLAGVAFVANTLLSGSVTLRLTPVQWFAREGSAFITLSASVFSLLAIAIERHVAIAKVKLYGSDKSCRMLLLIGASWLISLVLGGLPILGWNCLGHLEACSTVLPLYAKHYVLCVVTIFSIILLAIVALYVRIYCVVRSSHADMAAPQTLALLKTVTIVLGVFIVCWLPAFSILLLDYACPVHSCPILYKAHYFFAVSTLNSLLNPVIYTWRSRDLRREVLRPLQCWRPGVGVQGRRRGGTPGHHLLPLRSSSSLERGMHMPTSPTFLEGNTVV

[8] = molecular target: Sphingosine 1-phosphate receptor 3 (Homo sapiens, UniProt Q99500); test: Dose Response Cell-Based Assay for Agonists of the Sphingosine 1-Phosphate Receptor 3 (S1P3): Purchased Analogues. [Related pubchem assays: 373, 439 ]; type: functional
Sequence of Sphingosine 1-phosphate receptor 3 (Q99500 whole entry): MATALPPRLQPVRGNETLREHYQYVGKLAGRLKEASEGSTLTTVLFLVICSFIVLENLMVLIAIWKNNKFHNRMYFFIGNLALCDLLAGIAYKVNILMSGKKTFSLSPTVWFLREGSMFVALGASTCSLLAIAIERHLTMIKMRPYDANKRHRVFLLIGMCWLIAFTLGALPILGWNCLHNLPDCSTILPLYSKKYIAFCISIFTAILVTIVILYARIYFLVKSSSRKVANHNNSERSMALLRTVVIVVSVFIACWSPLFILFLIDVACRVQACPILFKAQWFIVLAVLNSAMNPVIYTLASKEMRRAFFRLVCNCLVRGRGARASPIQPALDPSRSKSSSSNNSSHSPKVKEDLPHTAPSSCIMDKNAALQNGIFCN

[9] = molecular target: Sphingosine 1-phosphate receptor 1 (Homo sapiens, UniProt P21453); test: Dose Response Cell-Based Assay for Agonists of the Sphingosine 1-Phosphate Receptor 1 (S1P1): Purchased Analogues. [Related pubchem assays: 1192, 373, 439 ]; type: functional
Sequence of Sphingosine 1-phosphate receptor 1 (P21453 whole entry): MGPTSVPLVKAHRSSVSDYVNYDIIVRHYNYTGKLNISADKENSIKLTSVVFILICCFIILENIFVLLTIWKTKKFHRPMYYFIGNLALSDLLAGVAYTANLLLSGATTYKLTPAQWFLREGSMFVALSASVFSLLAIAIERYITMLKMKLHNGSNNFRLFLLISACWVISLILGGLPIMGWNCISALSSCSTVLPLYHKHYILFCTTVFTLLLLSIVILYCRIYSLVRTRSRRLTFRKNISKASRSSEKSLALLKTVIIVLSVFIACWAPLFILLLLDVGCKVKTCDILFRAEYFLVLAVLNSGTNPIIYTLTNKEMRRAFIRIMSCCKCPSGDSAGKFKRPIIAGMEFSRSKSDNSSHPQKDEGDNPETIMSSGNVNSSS

[10] = molecular target: 5-hydroxytryptamine receptor 1A (Homo sapiens, UniProt P08908); type: functional
Sequence of 5-hydroxytryptamine receptor 1A (P08908 whole entry): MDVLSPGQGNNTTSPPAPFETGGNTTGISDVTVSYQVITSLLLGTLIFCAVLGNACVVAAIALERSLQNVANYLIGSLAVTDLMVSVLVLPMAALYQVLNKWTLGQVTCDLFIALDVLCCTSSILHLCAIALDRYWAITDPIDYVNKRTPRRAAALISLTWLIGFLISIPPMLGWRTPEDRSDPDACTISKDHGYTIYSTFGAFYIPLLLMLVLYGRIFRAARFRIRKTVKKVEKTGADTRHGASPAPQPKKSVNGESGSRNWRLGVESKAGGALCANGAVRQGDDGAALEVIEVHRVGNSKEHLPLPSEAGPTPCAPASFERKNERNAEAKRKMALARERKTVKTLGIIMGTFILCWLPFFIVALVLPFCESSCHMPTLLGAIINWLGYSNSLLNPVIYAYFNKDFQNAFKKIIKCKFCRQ

[11] = molecular target: Voltage-gated inwardly rectifying potassium channel KCNH2 (Homo sapiens, UniProt Q12809); test: concentration-dependent hERG rescue from blockers – cell-based, thallium flux, dose response (AID 2121); type: ADME
Sequence of Voltage-gated inwardly rectifying potassium channel KCNH2 (Q12809 whole entry): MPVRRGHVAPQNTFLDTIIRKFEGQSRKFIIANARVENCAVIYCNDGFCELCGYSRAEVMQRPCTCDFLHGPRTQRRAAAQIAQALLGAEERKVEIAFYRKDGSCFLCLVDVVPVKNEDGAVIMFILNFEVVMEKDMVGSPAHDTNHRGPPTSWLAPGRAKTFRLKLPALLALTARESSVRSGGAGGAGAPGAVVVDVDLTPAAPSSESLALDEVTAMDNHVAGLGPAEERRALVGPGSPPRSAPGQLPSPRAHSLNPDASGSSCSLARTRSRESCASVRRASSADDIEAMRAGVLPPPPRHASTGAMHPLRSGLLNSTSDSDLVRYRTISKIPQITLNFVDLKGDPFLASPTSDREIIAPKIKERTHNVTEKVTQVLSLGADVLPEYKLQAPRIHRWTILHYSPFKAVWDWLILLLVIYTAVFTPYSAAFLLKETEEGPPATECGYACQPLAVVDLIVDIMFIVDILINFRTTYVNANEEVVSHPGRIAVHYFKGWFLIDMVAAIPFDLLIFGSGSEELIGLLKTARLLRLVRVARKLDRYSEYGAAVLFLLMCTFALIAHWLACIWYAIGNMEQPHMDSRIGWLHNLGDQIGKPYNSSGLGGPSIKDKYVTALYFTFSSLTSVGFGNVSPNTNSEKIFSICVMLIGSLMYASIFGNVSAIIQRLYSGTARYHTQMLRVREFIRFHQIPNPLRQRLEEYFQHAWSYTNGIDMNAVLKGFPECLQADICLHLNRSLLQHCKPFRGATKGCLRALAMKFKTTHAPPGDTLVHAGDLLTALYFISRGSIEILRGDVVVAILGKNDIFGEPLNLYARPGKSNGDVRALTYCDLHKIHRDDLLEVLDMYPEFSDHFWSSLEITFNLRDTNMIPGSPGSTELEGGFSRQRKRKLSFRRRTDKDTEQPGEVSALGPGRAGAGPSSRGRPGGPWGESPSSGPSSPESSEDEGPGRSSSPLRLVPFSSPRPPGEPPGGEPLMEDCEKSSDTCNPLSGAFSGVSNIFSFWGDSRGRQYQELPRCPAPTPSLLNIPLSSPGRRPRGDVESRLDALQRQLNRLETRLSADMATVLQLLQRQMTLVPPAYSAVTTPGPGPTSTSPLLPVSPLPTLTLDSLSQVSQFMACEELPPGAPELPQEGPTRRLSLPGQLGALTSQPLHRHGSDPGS

[12] = HPDE-C7 pancreatic duct cell viability loss – fluorescence, HTS (AID 430); type: functional, cell-based; details: Homo sapiens
[13] = blockers of HIV-1 envelope-mediated cell-cell fusion – cherry-pick, dose response (AID 652057); type: functional, cell-based
[14] = HIV-1 AD8 envelope cell-cell fusion blockers – cherry-pick, dose response (AID 652062); type: functional, cell-based;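 further: luciferase signal from cell-cell fusion driven by HIV-1 clade B AD8 Env; potency is for inhibitors of fusion seen as a drop in luminescence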
[15] = blockers of HIV-1 ZM109 envelope-driven cell-cell fusion – HeLa effector, CEM target cells, luciferase, cherry-pick, dose response (AID 652058); type: functional, cell-based;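 further: luciferase signal from HIV-1 Env mediated cell-cell fusion of effector and target cells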
[16] = viability loss of HPDE-C7K cells – cell-based, fluorescence, HTS, primary screen (AID 431); type: functional; details: Homo sapiens
[17] = viability loss in CEM21 cells – cell-based, plate reader, dry powder, cytotoxicity control, dose response (AID 687026); type: functional
[18] = molecular target: T4, Sphingosine 1-phosphate receptor 2; test: Dose Response Cell Based Assay for Antagonists of the S1P2 Receptor. [Related pubchem assays: 856, 736 ]; type: functional
[19] = viability loss in CEM21 cells – cell-based, CellTiter-Glo luminescence, cherry-picked, cytotoxicity control for viral fusion inhibitor project, dose response (AID 652042); type: functional;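 further: potency for signal decrease meaning cytotoxicity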
[20] = inhibition of Env-driven cell fusion – HIV entry, plate reader, dry powder, dose response (AID 687023); type: functional, cell-based
[21] = test system: INS1; test: INS-1E survival protection against cytokine death – cell-based, luminescence, retest, dose response (AID 449756); type: functional; details: Rattus norvegicus;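 further: cell death triggered by IL-1 beta plus TNF-alpha plus IFN-gamma mixture; protective hits raise ATP signal compared with cytokine alone wells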
[22] = molecular target: T5, COUP transcription factor 2 (Homo sapiens, UniProt P24468); test: Luminescence-based cell-based high throughput dose response assay to identify inhibitors of COUP-TFII (NR2F2).; type: functional;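 further: HEK293 cells transiently cotransfected with COUP-TFII expression vector and reporter; luciferase reporter luminescence driven by COUP-TFII from the pX2-168 reporter plasmid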
T5 sequence (P24468 whole entry): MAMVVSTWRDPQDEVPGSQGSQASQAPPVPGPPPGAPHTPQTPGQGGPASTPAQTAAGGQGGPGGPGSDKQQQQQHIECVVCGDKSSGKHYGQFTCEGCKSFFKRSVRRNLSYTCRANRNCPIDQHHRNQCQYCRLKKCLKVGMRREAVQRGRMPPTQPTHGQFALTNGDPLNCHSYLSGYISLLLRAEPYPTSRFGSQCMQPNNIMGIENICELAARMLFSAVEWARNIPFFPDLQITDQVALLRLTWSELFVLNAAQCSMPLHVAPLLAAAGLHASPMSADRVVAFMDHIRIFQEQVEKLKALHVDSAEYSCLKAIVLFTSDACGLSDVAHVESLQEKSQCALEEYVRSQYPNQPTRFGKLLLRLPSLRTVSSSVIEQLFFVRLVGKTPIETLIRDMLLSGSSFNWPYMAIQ

[23] = molecular target: T1, NADPH oxidase 1; test: Late-stage luminescence-based cell-based dose response assay to identify inhibitors of NADPH oxidase 1 (NOX1): Purchased analogs 2.; type: functional
[24] = molecular target: Solute carrier family 12 member 2/member 5 (Homo sapiens, UniProt P55011+Q9H2X9); test: KCC2 and NKCC1 inhibition by rubidium flux, cell-based, NKCC1 counter-screen (AID 1734); type: functional, HEK293
[25] = molecular target: Aryl hydrocarbon receptor (Homo sapiens, UniProt P35869); test: Luminescence-based cell-based high throughput dose response assay for activators of the Aryl Hydrocarbon Receptor (AHR). [Related pubchem assays: 2796 (Primary screen (AHR activators in singlicate)), 2845 (Confirmation screen (AHR activators in triplicate)), 434939 (Counterscreen (PXR activators in triplicate)), 2804 (Summary (AHR activators))]; type: ADME
[26] = molecular target: Cytochrome P450 3A4 (Homo sapiens, UniProt P08684);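 further: CYP3A4 tested as one member of a cytochrome P450 panel screen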
[27] = molecular target: Cytochrome P450 2D6 (Homo sapiens, UniProt P10635);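 further: CYP2D6 member of a cytochrome P450 panel assay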
Sequence of Cytochrome P450 2D6 (P10635 whole entry): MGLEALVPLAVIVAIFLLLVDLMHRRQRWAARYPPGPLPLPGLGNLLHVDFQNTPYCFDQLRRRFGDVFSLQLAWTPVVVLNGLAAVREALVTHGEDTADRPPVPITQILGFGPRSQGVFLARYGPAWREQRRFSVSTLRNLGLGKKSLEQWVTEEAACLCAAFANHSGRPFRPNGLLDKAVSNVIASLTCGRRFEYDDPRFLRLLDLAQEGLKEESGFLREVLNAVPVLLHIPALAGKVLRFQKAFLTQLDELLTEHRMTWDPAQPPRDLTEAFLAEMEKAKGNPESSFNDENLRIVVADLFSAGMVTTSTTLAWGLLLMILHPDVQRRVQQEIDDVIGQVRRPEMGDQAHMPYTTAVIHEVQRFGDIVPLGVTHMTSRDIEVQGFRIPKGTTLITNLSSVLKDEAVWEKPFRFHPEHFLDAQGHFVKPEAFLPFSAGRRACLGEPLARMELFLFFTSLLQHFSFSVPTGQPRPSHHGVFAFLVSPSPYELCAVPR

- IC50 [1]: > 67 µM (not active)
- IC50 [2]: 9.67 µM (active)
- IC50 [3]: > 20 µM (inactive)
SMILES: CCCN(CC1CC1)c1nc(N)c2c(N)nc(OC)cc2c1C#N

- IC50 [4]: > 17 µM (not active)
SMILES: O=C(Oc1cccc([N+](=O)[O-])c1)c1sc2ccccc2c1Cl

- IC50 [5]: 39.4 µM (active)
- IC50 [6]: > 35 µM (not active)
SMILES: COc1cccc(Oc2c[nH]nc2-c2ccc(O)cc2O)c1

- EC50 [7]: > 10 µM (not active)
- EC50 [8]: > 50 µM (not active)
- EC50 [9]: > 50 µM (not active)
SMILES: CCC(C)NC(=O)c1cc(-c2ccc(C)cc2)on1 (stereo not drawn)

- EC50 [10]: > 50 µM (not active)
SMILES: CCOC(=O)c1c(C)nc(-c2ccccc2)nc1NC(=O)CC

- IC50 [5]: 153 µM (active)
SMILES: O=[N+]([O-])c1ccccc1OCCNCc1ccccc1
- EC50 [11]: 4.78 µM (active)

SMILES: COc1ccc2c(c1)[nH]c1c(N3CCN(Cc4ccc5c(c4)OCO5)CC3)ncnc12
- EC50 [12]: 16.7 µM (active)
- AC50 [13]: 3.89 µM (active)
- AC50 [14]: 4.68 µM (active)
- AC50 [15]: 6.42 µM (active)
- EC50 [16]: 14.8 µM (active)
- AC50 [17]: 35.8 µM (active) and 32.4 µM (active)
- IC50 [18]: 4.01 µM (active)
- AC50 [19]: 38 µM (active)
- AC50 [20]: 2.72 µM (active) and 5.39 µM (active)
- AC50 [21]: 2.06 µM (active)
- IC50 [22]: 6.68 µM (active)

- IC50 [23]: 6.22 µM (active)
SMILES: CC(=O)Nc1ccc(/C=N/Nc2ccccc2)cc1

- IC50 [24]: 19.7 µM (active)
SMILES: Cc1cnc(NC(=O)CSc2nnc(Cc3ccccc3)o2)s1

- EC50 [25]: 9.35 µM (active)
- AC50 [26]: inconclusive
- AC50 [27]: inconclusive
SMILES: Cc1cc(C)nc(Nc2ncc(O)n2-c2ccccc2)n1
